# Assay results reported in ChEMBL document CHEMBL4390646, “A fragment-based approach towards the discovery of N-substituted tropinones as inhibitors of Mycobacterium tuberculosis transcriptional regulator EthR2” (Eur J Med Chem, 2019).
# Activity calls are given as the source filed them. No cut-off for these calls is given here.
# Columns and labels:
# [1] = system: Mycobacterium tuberculosis; assay: Binding affinity to recombinant Mycobacterium tuberculosis EthR2 assessed as change in melting temperature at 20 uM by SYPRO Orange dye based fluorescence thermal shift assay
# [2] = system: Mycobacterium tuberculosis; assay: Inhibition of EthR2 in Mycobacterium tuberculosis assessed as potentiation of ETH bioactivation up to 30 uM using 0.1 ug/ml ETH
# [3] = Inhibition of recombinant Mycobacterium tuberculosis EthR2 expressed in golden hamster BHK21 cells assessed as reduction in EthR2 and DNA interaction measured after 48 hrs by p-nitrophenyl phosphate based SEAP reporter gene assay; format: cell-based
# [4] = system: Mycobacterium tuberculosis; assay: Binding affinity to recombinant Mycobacterium tuberculosis EthR2 assessed as change in melting temperature at 1 mM by Nano Orange dye based fluorescence thermal shift assay
# [5] = target: HTH-type transcriptional regulator EthR (Mycobacterium tuberculosis) (UniProt P9WMC1); assay: Binding affinity to Mycobacterium tuberculosis EthR at 30 uM by mammalian reporter assay
# Sequence of HTH-type transcriptional regulator EthR (Mycobacterium tuberculosis) (P9WMC1 whole entry): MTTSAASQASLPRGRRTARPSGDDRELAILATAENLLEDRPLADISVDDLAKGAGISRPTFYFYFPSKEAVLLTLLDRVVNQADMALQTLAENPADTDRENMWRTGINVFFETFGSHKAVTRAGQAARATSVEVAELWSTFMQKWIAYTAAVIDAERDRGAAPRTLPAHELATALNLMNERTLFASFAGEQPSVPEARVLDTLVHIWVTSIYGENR
Compound,ΔTm [1] [°C],Activity [2],pIC50 [3],ΔTm [4] [°C],Activity [5]
O=C1CC2CCC(C1)N2CCc1ccc(F)cc1,0.4,inactive,5.6,,
O=C1C2CCC1CN(CCc1ccc(Cl)cc1)C2,0.1,,,,
O=C1CC2CCC(C1)N2CCc1ccncc1,0,inactive,,,
CC(C)Sc1nc2[nH]cnc(N)c-2n1,,,5.1,2.5,
O=C1CC2CCC(C1)N2CCc1ccc(Cl)cc1,0.6,inactive,6,3.4,inactive
CCCNC(=O)Nc1cccc(C)n1,,,< 4,2.2,
O=C1CC2CCC(C1)N2CCc1ccc([N+](=O)[O-])cc1,-0.2,,,,
N=C(N)Nc1nc2ccccc2s1,,,< 4,2.8,
O=C1CC2CCC(C1)N2CCc1ccc(Cl)c(Cl)c1,1,inactive,6,,
CC(Cc1ccc(Cl)cc1)N1C2CCC1CC(=O)C2 (stereo not drawn),0.1,,,,
FC(F)=C1CC2CCC(C1)N2CCc1ccc(Cl)cc1,0.6,,< 4.8,,
O=C1CC2CCC(C1)N2CCc1ccc(Br)cc1,1,inactive,6.1,,
COC1(OC)CC2CCC(C1)N2CCc1ccc(Cl)cc1,0.2,,< 4.8,,
O=C1CC2CCC(C1)N2CCc1cccc(C(F)(F)F)c1,-0.1,,,,
O=C1CC2CCCC(C1)N2CCc1ccc(Cl)cc1,0.6,inactive,5.8,,
O=C1C2CCCC1CN(CCc1ccc(Cl)cc1)C2,-0.1,,,,
O=C1CC2CCC(C1)N2C(=O)Cc1ccc(Cl)cc1,-0.1,,,,
COc1ccc(CCN2C3CCC2CC(=O)C3)cc1,0.3,,,,
Clc1cccc(CN2CCNCC2)c1,,,5.5,3.1,
Clc1ccc(CCN2C3CCC2CC2(C3)OCCO2)cc1,0.1,,< 4.8,,
O=C1CC2CCC(C1)N2Cc1ccc(Cl)cc1,0,,,,
O=C1CC2CCC(C1)N2CCc1ccc(Cl)cc1Cl,0.2,,5.7,,
Cc1ccc(CCN2C3CCC2CC(=O)C3)cc1,0.6,inactive,5.8,,
O=C1CC2CCC(C1)N2CCc1ccc(C(F)(F)F)cc1,1.8,inactive,6.7,,
O=C1CC2CCC(C1)N2CCc1ccccc1,0.1,inactive,5,,
O=C1CC2CCC(C1)N2CCc1ccccc1C(F)(F)F,0.3,,,,
